According to patent publication EP2698385A1, “Detection of synthetic cannabinoids” (priority 2012, dated 2014):

Columns and labels:
[1] = tested on: antiserum raised to Immunogen II (Hapten B-BTG); assay: Competitive ELISA microtiter plate assay (Example 19), antiserum raised to Immunogen II, Hapten A-HRP conjugate as detection reagent; format: binding, sheep
Protocol: (§1) Aqueous solutions of the immunogens prepared in examples 5 and 13 were formulated with Freund's Complete Adjuvant (FCA) to form emulsions consisting of 2mg/ml Immunogen I and 2mg/ml of Immunogen II in 50%(v/v) FCA. Three sheep were immunised with each emulsion (1° immunisations), 0.25ml being intramuscularly injected at four sites in the rump of each animal. Subsequent immunisations (boosts 2-8) contained 1mg/ml Immunogen I and 1mg/ml Immunogen II. All boosts were emulsified in 50%(v/v) Freund's Incomplete Adjuvant (FIA) and administered to the appropriate sheep in the same manner as the 1° immunisations, at monthly intervals. Blood sampling took place 7-14 days after each boost. Each sample was processed to produce antiserum, which was further purified by caprylic acid and ammonium sulphate precipitation to yield an immunoglobulin (Ig) fraction. The Ig fraction was evaluated by competitive ELISA microtiter plate assay, as described in example 19 below.
(§2) Example 19: Development of competitive ELISA for JWH synthetic cannabinoids and metabolites. • (a) The wells of an enhanced binding 96 well polystyrene microtiter plate were coated with the Ig fraction of the antiserum raised to Immunogen I (Hapten A-BTG - example 5) and diluted in 10mM Tris, pH8.5 (125µl/well). The appropriate antibody coating concentration was determined using standard ELISA checkerboard techniques. The plate was incubated for 2 hours at 37°C, washed 4 times over a 10-minute period with Tris buffered saline containing Tween 20 (TBST) and tapped dry. Standard solutions of JWH synthetic cannabinoids, metabolites and selected molecules were prepared in TBST and 50µl of each was added to the appropriate wells. 75µl of conjugate (Hapten A-HRP) diluted in Tris buffer containing EDTA, D-mannitol, sucrose, thimerosal and BSA, was added to each of the wells. The appropriate dilution of conjugate was also determined using standard ELISA checkerboard techniques. The plate was incubated at 25°C for 1 hour. The excess unbound conjugate was removed by washing 6 times over a 10-minute period with TBST and tapped dry. 125µl of tetramethylbenzedine (TMB) substrate solution was added to each well of the plate that was then incubated for 15-20 minutes in the dark at room temperature. The reaction was terminated by addition of 125µl of 0.2M sulphuric acid to each well. The absorbance was then measured at 450nm using a microtiter plate reader. Employing each series of standards, calibration curves were generated and these were used to determine the specificity of the immunoassay for the JWH synthetic cannabinoids, metabolites and selected molecules. The results of this study are presented in Tables 1 to 3, cross-reactivity being calculated according to the following formula: %CR = […] /IC50,CR X 100 [formula] Where %CR is the percentage cross-reactivity, IC50, YWH-018 is the concentration of JWH-018 that causes 50% displacement of signal and IC50, CR is the concentration of JWH synthetic cannabinoid/metabolite/selected molecule that causes 50% displacement of signal.
Table 1: Data generated from a competitive microtiter plate assay for JWH synthetic cannabinoids and metabolites, employing antiserum raised to Immunogen II (Hapten B-BTG) and conjugate (Hapten A-HRP) as detection reagent. (b) In a similar manner to that described in Example 19(a), the wells of a 96 well microtiter plate were coated with the Ig fraction of the antiserum raised to Immunogen II ([…]). Conjugate (Hapten A-HRP) was employed as a detection reagent.

[2] = tested on: antibodies raised to Immunogens I & II; assay: Competitive ELISA (Example 19), sensitivity and cross-reactivity of selected molecules, one result for both antibodies; format: binding, sheep; conditions: result in words
Protocol: as §1, §2
Table 2: Data generated from a competitive microtiter plate assay for JWH synthetic cannabinoids and metabolites, employing antiserum raised to Immunogen I (Hapten A-BTG) and conjugate (Hapten A-HRP) as detection reagent. • (c) The resulting competitive ELISA for synthetic cannabinoids and metabolites was further employed to analyse urine and serum samples from 20 patients (Table 3). • (d) The resulting competitive ELISA for synthetic cannabinoids and metabolites was also employed to test for the 5-fluoropentyl derivative of JWH-018, (1-(5-fluoropentyl)indol-3yl (1-naphthyl) methanone (Table 4).

[3] = Table 1, 40 ng/ml highest concentration tested
[4] = Table 1, CR based on 100% for JWH-018

| SMILES | IC50 [1, 3] [ng/mL] | % Cross-reactivity [1, 4] | binding / cross-reaction with antibodies raised from Immunogens I and II [2] | IC50 ng/ml [1, 3] | IC50 ([1]; first Table 4, Immunogen II) [ng/mL] | % Cross-reactivity ([1]; first Table 4, Immunogen II, JWH-018 = 100) [%] |
| --- | --- | --- | --- | --- | --- | --- |
| O=C(c1cccc2ccccc12)c1cn(CCCCCO)c2ccccc12 [JWH-018 N-(5-hydroxypentyl) metabolite] | 1.15 | 183.48% | – | – | – | – |
| CCCCn1cc(C(=O)c2cccc3ccccc23)c2ccccc21 [JWH-073] | 1.56 | 135.26% | – | – | – | – |
| O=C(O)CCCCn1cc(C(=O)c2cccc3ccccc23)c2ccccc21 [JWH-018 N-pentanoic acid metabolite] | 5.48 | 38.50% | bind | – | – | – |
| O=C(c1cccc2ccccc12)c1c[nH]c2ccccc12 [3-(1-naphthoyl)-1H-Indole, 3-(1-naphthoyl)-1H-indole] | – | << 5.28% | – | >> 40 ng/ml | – | – |
| CCCCCn1cc(C(=O)c2cccc3ccccc23)c2cc(O)ccc21 [JWH-018 5-hydroxyindole metabolite] | 1.62 | 130.25% | – | – | – | – |
| CCCCCn1cc(C(=O)c2ccc(Cl)c3ccccc23)c2ccccc21 [JWH-398] | 17.55 | 12.02% | bind | – | – | – |
| CCCCCn1cc(C(=O)c2cccc3ccccc23)c2ccccc21 [JWH-018] | 2.11 | 100.00% | – | – | 1.97 | 100.00 |
| CCCCCn1cc(C(=O)c2cccc3ccccc23)c2c(O)cccc21 [JWH-018 4-hydroxyindole metabolite] | 9.16 | 23.03% | – | – | – | – |
| O=C(c1cccc2ccccc12)c1cn(CCN2CCOCC2)c2ccccc12 [WIN 55,225 (other name JWH-200), JWH-200] | 1.66 | 127.11% | – | – | – | – |
| CCCCCn1cc(C(=O)c2cccc3ccccc23)c2ccc(O)cc21 [JWH-018 6-hydroxyindole metabolite] | 0.98 | 215.31% | – | – | – | – |
